Calls of active or inactive are those of the source. The calls are words filed in the database; no cut-off is given here.
Legend:
[1] = biological target: T1, 5-hydroxytryptamine receptor 2C (Homo sapiens) (UniProt P28335); assay: Agonist activity at human 5HT2C receptor expressed in CHO-K1 cells assessed as increase of fluorescence based calcium mobilization by FLIPR assay relative to control; assay type: functional, cell-based
T1 sequence (whole entry): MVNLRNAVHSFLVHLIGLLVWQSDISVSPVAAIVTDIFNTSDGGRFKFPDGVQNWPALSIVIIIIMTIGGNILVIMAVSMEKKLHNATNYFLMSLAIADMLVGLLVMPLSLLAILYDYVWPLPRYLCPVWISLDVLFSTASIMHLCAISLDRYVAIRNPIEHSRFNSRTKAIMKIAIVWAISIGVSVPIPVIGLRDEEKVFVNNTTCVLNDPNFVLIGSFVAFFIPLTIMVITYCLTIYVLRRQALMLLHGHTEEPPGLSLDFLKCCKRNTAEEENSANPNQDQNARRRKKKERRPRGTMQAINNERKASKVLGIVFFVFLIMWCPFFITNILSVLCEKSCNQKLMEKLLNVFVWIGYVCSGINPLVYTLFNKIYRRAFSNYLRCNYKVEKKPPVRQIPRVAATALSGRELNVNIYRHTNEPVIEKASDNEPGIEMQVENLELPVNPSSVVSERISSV

[2] = biological target: T2, 5-hydroxytryptamine receptor 2B (Homo sapiens, UniProt P41595); assay: Agonist activity at human 5HT2B receptor expressed in CHO-K1 cells assessed as increase of fluorescence based calcium mobilization by FLIPR assay relative to control; assay type: functional, cell-based
T2 sequence (P41595 whole entry): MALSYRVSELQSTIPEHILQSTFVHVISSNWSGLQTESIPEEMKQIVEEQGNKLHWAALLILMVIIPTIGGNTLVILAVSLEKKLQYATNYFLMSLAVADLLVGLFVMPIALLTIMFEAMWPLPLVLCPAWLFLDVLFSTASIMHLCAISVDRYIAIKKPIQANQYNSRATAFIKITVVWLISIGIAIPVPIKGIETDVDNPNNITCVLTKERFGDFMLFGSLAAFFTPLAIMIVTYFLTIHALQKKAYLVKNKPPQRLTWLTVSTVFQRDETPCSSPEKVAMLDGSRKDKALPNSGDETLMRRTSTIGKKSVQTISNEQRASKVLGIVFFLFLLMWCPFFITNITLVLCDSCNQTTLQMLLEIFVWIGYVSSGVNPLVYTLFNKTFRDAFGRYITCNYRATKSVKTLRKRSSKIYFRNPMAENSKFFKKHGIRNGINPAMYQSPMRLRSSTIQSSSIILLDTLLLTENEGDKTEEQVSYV

[3] = biological target: T2, 5-hydroxytryptamine receptor 2B; assay: Agonist activity at human 5HT2B receptor expressed in CHO-K1 cells assessed as increase of fluorescence based calcium mobilization by FLIPR assay; assay type: functional, cell-based
[4] = biological target: T3, 5-hydroxytryptamine receptor 2C (Homo sapiens, UniProt P28335); assay: Agonist activity at human 5HT2C receptor expressed in CHO-K1 cells assessed as increase of fluorescence based calcium mobilization by FLIPR assay; assay type: functional, cell-based
T3 sequence (P28335 whole entry): T1 sequence (whole entry)

[5] = biological target: T2, 5-hydroxytryptamine receptor 2B; assay: Agonist activity at human 5HT2B receptor expressed in CHO-K1 cells assessed as increase of fluorescence based calcium mobilization at 10 uM by FLIPR assay relative to control; assay type: functional, cell-based
[6] = biological target: T4, 5-hydroxytryptamine receptor 2C (Canis lupus familiaris) (UniProt Q60F97); assay: Agonist activity at dog 5HT2C receptor ralative to control; assay type: functional
T4 sequence (whole entry): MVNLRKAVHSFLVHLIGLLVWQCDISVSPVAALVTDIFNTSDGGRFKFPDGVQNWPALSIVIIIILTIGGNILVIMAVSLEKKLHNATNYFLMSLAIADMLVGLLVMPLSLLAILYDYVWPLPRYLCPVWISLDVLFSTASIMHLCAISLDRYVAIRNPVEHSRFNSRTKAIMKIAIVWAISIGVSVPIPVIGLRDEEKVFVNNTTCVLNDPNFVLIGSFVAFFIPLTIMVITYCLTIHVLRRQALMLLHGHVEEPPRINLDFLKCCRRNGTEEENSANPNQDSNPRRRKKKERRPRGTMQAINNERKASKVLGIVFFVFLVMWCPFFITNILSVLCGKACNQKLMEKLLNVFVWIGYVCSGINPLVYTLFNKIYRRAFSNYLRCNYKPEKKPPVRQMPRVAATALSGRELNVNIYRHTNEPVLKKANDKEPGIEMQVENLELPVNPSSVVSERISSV

[7] = Binding affinity to L-type calcium channel verapamil binding site at 10000 nM
[8] = Binding affinity to sodium channel site 2 at 10000 nM
[9] = biological target: Voltage-gated sodium channel type V alpha polypeptide (Oryctolagus cuniculus) (UniProt Q2MZF0); assay: Inhibition of Nav1.5 in rabbit cardiac myocytes up to 100 uM; assay type: cell-based
[10] = biological target: T2, 5-hydroxytryptamine receptor 2B; assay: Agonist activity at human recombinant 5HT2B receptor expressed in Swiss mouse 3T3 cells assessed as increase of fluorescence based calcium mobilization at 10 uM by FLIPR assay; assay type: functional, cell-based; conditions: NIH3T3
[11] = biological target: T5, Muscarinic acetylcholine receptor M1 (Homo sapiens) (UniProt P11229); assay: Agonist activity at human muscarinic M1 receptor up to 10 uM; assay type: functional
T5 sequence (whole entry): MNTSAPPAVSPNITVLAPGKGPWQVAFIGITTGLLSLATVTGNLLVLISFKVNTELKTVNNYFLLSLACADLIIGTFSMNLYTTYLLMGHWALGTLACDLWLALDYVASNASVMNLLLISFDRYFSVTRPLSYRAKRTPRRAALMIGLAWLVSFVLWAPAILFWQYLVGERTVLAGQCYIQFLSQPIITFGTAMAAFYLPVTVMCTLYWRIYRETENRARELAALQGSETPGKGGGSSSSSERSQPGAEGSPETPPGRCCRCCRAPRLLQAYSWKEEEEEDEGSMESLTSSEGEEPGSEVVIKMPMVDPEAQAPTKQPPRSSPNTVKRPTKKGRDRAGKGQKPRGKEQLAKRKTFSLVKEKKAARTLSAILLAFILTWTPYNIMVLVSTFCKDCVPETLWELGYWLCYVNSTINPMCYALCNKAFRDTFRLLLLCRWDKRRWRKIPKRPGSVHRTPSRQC

Rattus norvegicus = assay: Inhibition of 5HT2A receptor-mediated head twitches in rat at 10 mg/kg, po; assay type: functional, organism-based; set-up: dose 10 mg/kg
[12] = biological target: 5-hydroxytryptamine receptor 2A (Homo sapiens) (UniProt P28223); assay: Agonist activity at human recombinant 5HT2A receptor expressed in Swiss mouse 3T3 cells increase of fluorescence based calcium mobilization by FLIPR assay relative to control; assay type: functional, cell-based; conditions: NIH3T3
5-hydroxytryptamine receptor 2A (Homo sapiens), sequence (P28223 whole entry): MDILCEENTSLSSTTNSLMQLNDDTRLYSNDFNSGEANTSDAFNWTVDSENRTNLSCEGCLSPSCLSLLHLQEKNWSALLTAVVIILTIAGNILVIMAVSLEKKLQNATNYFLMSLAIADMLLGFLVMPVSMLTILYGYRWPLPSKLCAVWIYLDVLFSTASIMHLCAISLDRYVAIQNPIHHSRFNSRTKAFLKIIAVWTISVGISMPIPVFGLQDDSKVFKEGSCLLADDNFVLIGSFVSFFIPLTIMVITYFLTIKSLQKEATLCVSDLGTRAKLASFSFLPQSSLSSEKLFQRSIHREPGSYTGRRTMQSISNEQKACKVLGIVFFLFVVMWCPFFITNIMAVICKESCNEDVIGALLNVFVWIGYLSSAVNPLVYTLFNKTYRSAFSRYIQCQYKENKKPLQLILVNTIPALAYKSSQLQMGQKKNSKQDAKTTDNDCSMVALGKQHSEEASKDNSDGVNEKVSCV

[13] = Binding affinity to L-type Ca2+ channel dihydropyridine binding site at 10000 nM
[14] = biological target: 5-hydroxytryptamine receptor 2A (Canis lupus familiaris) (UniProt O46635); assay: Agonist activity at 5HT2A receptor in dog femoral artery relative to control; assay type: functional, tissue-based
5-hydroxytryptamine receptor 2A (Canis lupus familiaris), sequence (O46635 whole entry): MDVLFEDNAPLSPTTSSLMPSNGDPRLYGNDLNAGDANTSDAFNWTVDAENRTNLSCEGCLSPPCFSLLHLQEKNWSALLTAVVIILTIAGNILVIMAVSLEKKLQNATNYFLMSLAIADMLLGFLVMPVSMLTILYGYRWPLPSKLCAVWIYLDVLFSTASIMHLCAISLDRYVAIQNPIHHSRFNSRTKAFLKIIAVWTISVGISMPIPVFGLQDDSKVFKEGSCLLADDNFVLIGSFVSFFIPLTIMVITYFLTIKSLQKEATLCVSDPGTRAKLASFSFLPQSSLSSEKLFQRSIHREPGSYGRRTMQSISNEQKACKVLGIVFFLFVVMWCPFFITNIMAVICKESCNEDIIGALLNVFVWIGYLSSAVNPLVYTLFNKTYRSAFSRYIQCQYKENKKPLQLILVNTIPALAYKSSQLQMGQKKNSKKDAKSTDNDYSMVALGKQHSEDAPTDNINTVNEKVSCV

[15] = biological target: T6, Muscarinic acetylcholine receptor M5 (Homo sapiens) (UniProt P08912); assay: Agonist activity at human muscarinic M5 receptor up to 10 uM; assay type: functional
T6 sequence (whole entry): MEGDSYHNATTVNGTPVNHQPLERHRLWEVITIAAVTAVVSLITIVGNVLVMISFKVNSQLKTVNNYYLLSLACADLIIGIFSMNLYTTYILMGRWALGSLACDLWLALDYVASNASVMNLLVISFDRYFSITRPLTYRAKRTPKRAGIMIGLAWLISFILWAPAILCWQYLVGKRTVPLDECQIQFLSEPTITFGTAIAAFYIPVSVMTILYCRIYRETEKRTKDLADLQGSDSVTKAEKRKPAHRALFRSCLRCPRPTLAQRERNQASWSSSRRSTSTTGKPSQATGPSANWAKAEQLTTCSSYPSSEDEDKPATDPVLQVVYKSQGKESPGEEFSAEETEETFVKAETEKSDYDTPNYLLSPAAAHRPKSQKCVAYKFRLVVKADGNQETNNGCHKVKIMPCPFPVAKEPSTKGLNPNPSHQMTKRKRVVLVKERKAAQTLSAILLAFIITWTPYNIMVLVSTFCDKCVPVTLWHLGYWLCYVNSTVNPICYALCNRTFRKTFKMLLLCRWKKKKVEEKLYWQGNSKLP

[16] = Binding affinity to L-type calcium channel diltiazem binding site at 10000 nM
Canis familiaris = assay: Increase of peak urethral pressure in iv dosed anesthetized dog stress urinary incontinence model; assay type: functional, organism-based; conditions: Canis lupus familiaris; Urethra
[17] = biological target: T1, 5-hydroxytryptamine receptor 2C (Homo sapiens); assay: Agonist activity at human 5HT2C receptor expressed in CHO-K1 cells assessed as increase of fluorescence based calcium mobilization at 10 uM by FLIPR assay relative to control; assay type: functional, cell-based
[18] = biological target: T3, 5-hydroxytryptamine receptor 2C; assay: Displacement of [3H][…] from human 5HT2C receptor expressed in Swiss mouse 3T3 cells by scintillation proximity assay; assay type: cell-based, NIH3T3
[19] = biological target: T1, 5-hydroxytryptamine receptor 2C (Homo sapiens); assay: Agonist activity at human 5HT2C receptor expressed in HEK293 cells assessed as 5-HT-induced maximum response by inositol phosphate accumulation assay; assay type: functional, cell-based
[20] = Chemical stability of compound at pH 1 to 12; assay type: physicochemical; conditions: buffer
[21] = Aqueous solubility of the compound at pH 1.5 to 11.7; assay type: physicochemical; conditions: buffer
[22] = biological target: T1, 5-hydroxytryptamine receptor 2C (Homo sapiens); assay: Agonist activity at human recombinant 5HT2C receptor expressed in Swiss mouse 3T3 cells with low expression increase of fluorescence based calcium mobilization by FLIPR assay relative to control; assay type: functional, cell-based; conditions: NIH3T3
[23] = biological target: T3, 5-hydroxytryptamine receptor 2C; assay: Agonist activity at human 5HT2C receptor expressed in Swiss mouse 3T3 cells with low expression increase of fluorescence based calcium mobilization by FLIPR assay; assay type: functional, cell-based

Cc1cccc(Cc2ncc3c(n2)CCNCC3)c1
Emax [1]: 84%
Emax [2]: 62%
EC50 [3]: 410 nM

c1ccc(-c2ncc3c(n2)CNCC3)cc1
Emax [1]: 92%
EC50 [4]: 380 nM

c1ccc(Cc2ncc3c(n2)CCNCC3)cc1
Emax [5]: 33%
Activity [6]: 81%
inhibition [7]: < 20%
inhibition [8]: < 20%
Activity [9]: inactive
Emax [10]: 33%
Activity [11]: inactive
inhibition (Rattus norvegicus): inactive
Emax [12]: 82%
inhibition [13]: < 20%
Emax [14]: 51%
Activity [15]: inactive
inhibition [16]: < 20%
Activity (Canis familiaris): Dose-dependent effect

c1ccc(CCc2ncc3c(n2)CCNC3)cc1
Emax [17]: 50%

c1ccc(-c2ncc3c(n2)CCNC3)cc1
Activity [1]: inactive

Fc1ccccc1Cc1ncc2c(n1)CCNCC2
Emax [1]: 65%
Emax [2]: 43%
EC50 [3]: 220 nM

Clc1ccccc1Cc1ncc2c(n1)CCNCC2
Emax [2]: 36%
Ki [18]: 1850 nM
EC50 [3]: 178 nM
Emax [17]: 38%

Fc1cccc(Cc2ncc3c(n2)CCNCC3)c1
Emax [1]: 67%
Emax [2]: 66%
EC50 [3]: 183 nM

Clc1cccc(Cc2ncc3c(n2)CCNCC3)c1
Emax [1]: 56%
Emax [2]: 50%
EC50 [3]: 30 nM

Fc1ccc(Cc2ncc3c(n2)CCNCC3)cc1
Emax [1]: 60%
Emax [2]: 90%
EC50 [3]: 610 nM

c1ccc(CCCc2ncc3c(n2)CCNC3)cc1
Emax [1]: 100%
EC50 [4]: 1900 nM

C[C@H]1CNCCc2ccc(Cl)cc21
Emax [1]: 84%
Activity [6]: 82%
Emax [19]: 100%

O=C(O)/C=C/C(=O)O.c1ccc(Cc2ncc3c(n2)CCNCC3)cc1
Stability [20]: Stable
solubility [21]: > 10000 µg/mL

c1ccc(CCc2ncc3c(n2)CNCC3)cc1
Activity [1]: inactive

c1ccc(CCc2ncc3c(n2)CCNCC3)cc1
Emax [22]: 40%
Emax [1]: 99%
EC50 [23]: 4800 nM
EC50 [4]: 110 nM

FC(F)(F)c1cccc(Cc2ncc3c(n2)CCNCC3)c1
Emax [1]: 44%
Emax [2]: 63%
EC50 [3]: 160 nM

Cc1ccc(Cc2ncc3c(n2)CCNCC3)cc1
Emax [1]: 63%
Emax [2]: 80%
EC50 [3]: 164 nM

Clc1ccc(Cc2ncc3c(n2)CCNCC3)cc1
Emax [1]: 65%
Emax [2]: 62%
EC50 [3]: 60 nM

FC(F)(F)c1ccccc1Cc1ncc2c(n1)CCNCC2
Emax [5]: 15%
Emax [17]: 15%

c1ccc(CCCc2ncc3c(n2)CNCC3)cc1
Activity [1]: inactive

c1ccc(-c2ncc3c(n2)CCNCC3)cc1
Activity [1]: inactive

c1ccc(Cc2ncc3c(n2)CCNC3)cc1
Emax [17]: 64%

c1ccc(Cc2ncc3c(n2)CNCC3)cc1
Emax [17]: 27%

Cc1ccccc1Cc1ncc2c(n1)CCNCC2
Emax [1]: 70%
Emax [2]: 56%
EC50 [3]: 1200 nM
